# Source: ChEMBL document CHEMBL1149774, “Synthesis of N-(5,7-diamino-3-phenyl-quinoxalin-2-yl)-3,4,5-substituted anilines and N-[4[(5,7-diamino-3-phenylquinoxalin-2-yl)amino]benzoyl]-l-glutamic acid diethyl ester: evaluation of in vitro anti-cancer and anti-folate activities” (Eur J Med Chem, 2008)
# Assays:
# Format in all cases: functional
# [1] = tested on: ACHN; test: Growth inhibition of human ACHN cells after 48 hrs by SRB staining method
# [2] = tested on: A498; test: Growth inhibition of human A498 cells after 48 hrs by SRB staining method; conditions: A498, 48 h
# [3] = tested on: RPMI-8226; test: Growth inhibition of human RPMI8226 cells after 48 hrs by SRB staining method; conditions: RPMI-8226, 48 h
# [4] = tested on: NCI/ADR-RES; test: Growth inhibition of human NCI/ADR-RES cells after 48 hrs by SRB staining method
# [5] = tested on: A549; test: Growth inhibition of human A549 cells after 48 hrs by SRB staining method; conditions: A549, 48 h
# [6] = tested on: DU-145; test: Growth inhibition of human DU145 cells after 48 hrs by SRB staining method; conditions: DU-145, 48 h
# [7] = tested on: SK-OV-3; test: Growth inhibition of human SKOV3 cells after 48 hrs by SRB staining method; conditions: SK-OV-3, 48 h
# [8] = tested on: SK-MEL-28; test: Growth inhibition of human SK-MEL-28 cells after 48 hrs by SRB staining method; conditions: SK-MEL-28, 48 h
# [9] = tested on: UACC-62; test: Growth inhibition of human UACC62 cells after 48 hrs by SRB staining method; conditions: UACC-62, 48 h
# [10] = tested on: U-251; test: Growth inhibition of human U251 cells after 48 hrs by SRB staining method; conditions: U-251, 48 h
# [11] = tested on: SN12C; test: Growth inhibition of human SN12C cells after 48 hrs by SRB staining method
# [12] = tested on: OVCAR-8; test: Growth inhibition of human OVCAR8 cells after 48 hrs by SRB staining method; conditions: OVCAR-8, 48 h
# [13] = tested on: K562; test: Growth inhibition of human K562 cells after 48 hrs by SRB staining method; conditions: K562, 48 h
# [14] = tested on: SR; test: Growth inhibition of human SR cells after 48 hrs by SRB staining method
# [15] = tested on: UO-31; test: Growth inhibition of human UO31 cells after 48 hrs by SRB staining method; conditions: UO-31, 48 h
# [16] = tested on: EKVX; test: Growth inhibition of human EKVX cells after 48 hrs by SRB staining method
# [17] = tested on: SK-MEL-5; test: Growth inhibition of human SK-MEL-5 cells after 48 hrs by SRB staining method; conditions: SK-MEL-5, 48 h
# [18] = tested on: NCI-H522; test: Growth inhibition of human NCI-H522 cells after 48 hrs by SRB staining method; conditions: NCI-H522, 48 h
# [19] = tested on: SW-620; test: Growth inhibition of human SW620 cells after 48 hrs by SRB staining method; conditions: SW-620, 48 h
# [20] = tested on: SNB-19; test: Growth inhibition of human SNB19 cells after 48 hrs by SRB staining method; conditions: SNB-19, 48 h
# [21] = tested on: HCT-15; test: Growth inhibition of human HCT15 cells after 48 hrs by SRB staining method; conditions: HCT-15, 48 h
# [22] = tested on: HOP-62; test: Growth inhibition of human HOP62 cells after 48 hrs by SRB staining method; conditions: HOP-62, 48 h
# [23] = tested on: NCI-H226; test: Growth inhibition of human NCI-H226 cells after 48 hrs by SRB staining method; conditions: NCI-H226, 48 h
# [24] = tested on: SK-MEL-2; test: Growth inhibition of human SK-MEL-2 cells after 48 hrs by SRB staining method; conditions: SK-MEL-2, 48 h
# [25] = tested on: NCI-H322M; test: Growth inhibition of human NCI-H322M cells after 48 hrs by SRB staining method
# [26] = tested on: LOX IMVI; test: Growth inhibition of human LOX IMVI cells after 48 hrs by SRB staining method
# [27] = tested on: NCI-H23; test: Growth inhibition of human NCI-H23 cells after 48 hrs by SRB staining method; conditions: NCI-H23, 48 h
# [28] = Growth inhibition of human HS 578T cells after 48 hrs by SRB staining method
# [29] = tested on: KM12; test: Growth inhibition of human KM12 cells after 48 hrs by SRB staining method; conditions: KM12, 48 h
# [30] = tested on: 786-0; test: Growth inhibition of human 786-0 cells after 48 hrs by SRB staining method; conditions: 786-0, 48 h
# [31] = tested on: SF-268; test: Growth inhibition of human SF268 cells after 48 hrs by SRB staining method; conditions: SF-268, 48 h
# [32] = tested on: NCI-H460; test: Growth inhibition of human NCI-H460 cells after 48 hrs by SRB staining method; conditions: NCI-H460, 48 h
# [33] = tested on: RXF 393; test: Growth inhibition of human RXF393 cells after 48 hrs by SRB staining method; conditions: RXF 393, 48 h
# [34] = read-out: pLC50 (the source's name) (converted)
structure (smiles),measurement,setting,value
COc1ccc(Nc2nc3cc(N)cc(N)c3nc2-c2ccccc2)cc1,GI50,[1],15.1 µM
same,CC50,[1]; [34],> 100 µM
same,TGI,[1]; read-out: pTGI (converted),43.7 µM
same,CC50,[2]; [34],> 100 µM
same,TGI,[2]; read-out: pTGI (converted),> 100 µM
same,GI50,[3],19.1 µM
same,CC50,[3]; [34],> 100 µM
same,TGI,[3]; read-out: pTGI (converted),> 100 µM
same,GI50,[4],19.1 µM
same,CC50,[4]; [34],> 100 µM
same,TGI,[4]; read-out: pTGI (converted),44.7 µM
same,GI50,[5],27.5 µM
same,CC50,[5]; [34],> 100 µM
same,TGI,[5]; read-out: pTGI (converted),> 100 µM
same,GI50,[6],38.9 µM
same,CC50,[6]; [34],> 100 µM
same,TGI,[6]; read-out: pTGI (converted),> 100 µM
same,GI50,[7],33.1 µM
same,CC50,[7]; [34],> 100 µM
same,TGI,[7]; read-out: pTGI (converted),97.7 µM
same,GI50,[8],17 µM
same,CC50,[8]; [34],55 µM
same,TGI,[8]; read-out: pTGI (converted),30.2 µM
same,GI50,[9],17 µM
same,LC50,[9],55 µM
same,TGI,[9]; read-out: pTGI (converted),30.2 µM
same,GI50,[10],16.2 µM
same,LC50 (50% lethal concentration),[10],55 µM
same,TGI,[10]; read-out: pTGI (converted),29.5 µM
same,GI50,[11],20.4 µM
same,CC50,[11]; [34],> 100 µM
same,TGI,[11]; read-out: pTGI (converted),57.5 µM
same,GI50,[12],13.8 µM
same,CC50,[12]; [34],67.6 µM
same,TGI,[12]; read-out: pTGI (converted),30.9 µM
same,GI50,[13],29.5 µM
same,CC50,[13]; [34],> 100 µM
same,TGI,[13]; read-out: pTGI (converted),> 100 µM
same,GI50,[14],19.1 µM
same,CC50,[14]; [34],> 100 µM
same,TGI,[14]; read-out: pTGI (converted),> 100 µM
same,GI50,[15],16.6 µM
same,CC50,[15]; [34],70.8 µM
same,TGI,[15]; read-out: pTGI (converted),33.9 µM
same,GI50,[16],25.7 µM
same,CC50,[16]; [34],> 100 µM
same,TGI,[16]; read-out: pTGI (converted),> 100 µM
same,GI50,[17],15.1 µM
same,LC50,[17],53.7 µM
same,TGI,[17]; read-out: pTGI (converted),28.8 µM
same,GI50,[18],14.8 µM
same,LC50,[18],52.5 µM
same,TGI,[18]; read-out: pTGI (converted),28.2 µM
same,GI50,[19],22.4 µM
same,CC50,[19]; [34],60.3 µM
same,TGI,[19]; read-out: pTGI (converted),37.2 µM
same,GI50,[20],33.9 µM
same,LC50,[20],> 100 µM
same,TGI,[20]; read-out: pTGI (converted),> 100 µM
same,GI50,[21],15.1 µM
same,LC50,[21],> 100 µM
same,TGI,[21]; read-out: pTGI (converted),44.7 µM
same,GI50,[22],27.5 µM
same,LC50,[22],> 100 µM
same,TGI,[22]; read-out: pTGI (converted),> 100 µM
same,GI50,[23],24 µM
same,LC50,[23],> 100 µM
same,TGI,[23]; read-out: pTGI (converted),97.7 µM
same,GI50,[24],15.5 µM
same,LC50,[24],63.1 µM
same,TGI,[24]; read-out: pTGI (converted),31.6 µM
same,GI50,[25],23.4 µM
same,LC50,[25],> 100 µM
same,TGI,[25]; read-out: pTGI (converted),83.2 µM
same,GI50,[26],16.2 µM
same,LC50,[26],55 µM
same,TGI,[26]; read-out: pTGI (converted),29.5 µM
same,GI50,[27],12.6 µM
same,LC50,[27],51.3 µM
same,TGI,[27]; read-out: pTGI (converted),25.1 µM
same,GI50,[28],14.5 µM
same,CC50,[28]; [34],> 100 µM
same,TGI,[28]; read-out: pTGI (converted),46.8 µM
same,GI50,[29],15.8 µM
same,LC50,[29],60.3 µM
same,TGI,[29]; read-out: pTGI (converted),30.9 µM
same,GI50,[30],15.8 µM
same,CC50,[30]; [34],60.3 µM
same,TGI,[30]; read-out: pTGI (converted),30.9 µM
same,GI50,[31],12.9 µM
same,CC50,[31]; [34],72.4 µM
same,TGI,[31]; read-out: pTGI (converted),30.9 µM
same,GI50,[32],26.9 µM
same,LC50 (concentration killing 50% of cells),[32],> 100 µM
same,TGI,[32]; read-out: pTGI (converted),89.1 µM
same,GI50,[33],11 µM
same,CC50,[33]; [34],53.7 µM
same,TGI,[33]; read-out: pTGI (converted),24 µM
